Test results: PMC3022637, “The modulation of TRPM7 currents by nafamostat mesilate depends directly upon extracellular concentrations of divalent cations” (Molecular Brain, 2010)
Read-outs that look alike come from different tables or passages of the source. Blank lines part the entries; values can stand above or below the compound they belong to.

How the values were obtained:
[1] = biological target: T1, TRPM7 current in cultured mouse hippocampal neurons (Mus musculus, UniProt Q923J1); assay: Whole-cell voltage clamp of TRPM7 currents in cultured hippocampal neurons (low divalent cation-induced or compound-activated); assay type: cell-based
T1 construct: supports the substantial involvement of endogenous TRPM7 channels in the responses of neurons; endogenous in cells; host or cells: primary cultured hippocampal neurons from embryonic Swiss mice

human TRPM7 channels = test system: human TRPM7 channels; parameters: method as in PMID 18719395; conditions: pH 7.4 to 4.0; cited from earlier work
[2] = test system: CA1 neurons in the hippocampal slice; assay: Low divalent-induced inward current in CA1 neurons in the hippocampal slice; assay type: cell-based; conditions: co-perfusion
Description: To verify this we tested several compounds with benzene rings on their outer edge such as DAPI and HSB. Both DAPI and HSB are di-cations but with amidine groups at both termini. […] We also examined the actions of NM on CA1 neurons in the hippocampal slice in order to confirm whether or not NM was capable of inhibiting and activating this current in CA1 neurons in situ. The diffusion barriers presented in the slice preparation preclude very rapid changes in divalent cation concentrations but prolonged solution changes can be used to activate TRPM7 currents in this preparation. Lowering concentrations of divalent cations induced a slowly activating inward current that was attenuated by the co-perfusion of NM (not shown).

[3] = test system: cultured hippocampal neurons; assay: On-cell loose-patch recording of low Ca2+-induced action potential firing; assay type: cell-based, mouse; conditions: NM 200 μM; induced by 0.5 mM Ca2+ and 0.5 mM Mg2+; control 8.5 ± 2.7 Hz
[4] = test system: intracellular Ca2+ in cultured hippocampal neurons; assay: Fura-2 calcium imaging in cultured hippocampal neurons; assay type: cell-based, mouse
Method: (§1) Time-pregnant Swiss mice (embryonic day 16) were anesthetized with halothane and were decapitated. Brains of fetuses were removed rapidly and placed in Ca^2+ and Mg^2+ free ice cold PBS. Whole hippocampus or cerebral cortices were dissected under a dissection microscope and incubated with 0.05% trypsin-EDTA for 10 min at 37°C, then triturated with fire-polished glass pipettes. Cells were counted and plated in poly-L-ornithine-coated culture dishes at a density of 1 × 10^6 cells per 35 mm diameter dish. Neurons were cultured with neurobasal medium supplemented with B27 and maintained at 37°C in a humidified 5% CO2 atmosphere incubator. Cultures were fed twice a week. Neurons at 14-21 day culture stages were used for electrophysiological recordings and calcium image.
Fura-2 fluorescent Ca^2+ imaging was performed as described previously. Cortical or hippocampal neurons grown on 25 mm round glass coverslips were washed three times with ECF and incubated with 5 μM Fura-2-AM for ~ 40 min at room temperature. Neurons were then washed three times and incubated in normal ECF for 30 min. Coverslips with Fura-2-loaded neurons were transferred to a perfusion chamber on the stage of an inverted microscope (Nikon TE300, Tokyo, Japan). Cells were illuminated using a xenon lamp (75W) and observed with a 40 × UV fluor oil-immersion objective lens. Video images were obtained using a cooled CCD camera (Sensys KAF 1401, Photometrics, Tucson, AZ) mounted on an inverted microscope (Nikon TE300, Tokyo, Japan). Digitized images were acquired, stored, and analyzed in a PC controlled by Axon Imaging Workbench software (AIW2.1, Molecular Devices, Sunnyvale, CA). The shutter and filter wheel (Lambda 10-2, Sutter Instrument, Novato, CA) were also controlled by AIW to allow timed illumination of cells at 340 and 380 nm excitation wavelengths. Fura-2 fluorescence was detected at an emission wavelength of 510 nm. Ratio images of 340/380 nm were analyzed by averaging pixel ratio values in circumscribed regions of cells in the field of view. […]

[5] = test system: T2, human TRPM7 E1052A mutant; assay: Whole-cell recording of E1052A mutant TRPM7 currents in HEK293T cells; assay type: cell-based; conditions: 1 mM NM; 0.1 mM Ca2+ and 0.1 mM Mg2+; inward current at -100 mV
T2 construct: expressed in transfected cells; host or cells: HEK293T
Method: Electrophysiological recordings were made from HEK293T cells transfected wild-type (WT) human TRPM7 or the […], and the […] mutant channels, as previously described. Whole-cell and patch recordings were performed on HEK293T cells at room temperature (22-25°C) with Axopatch 200B (Molecular Devices, Sunnyvale, CA) amplifier. […] When required, 1 mM ethyleneglycol-bis-(α-amino-ethyl ether) N,N'-tetra-acetic acid (EGTA) was replaced with added CaCl2 and MgCl2 as indictated in results section. […] INM represents the current observed during application of NM.

[6] = test system: intracellular Ca2+ in cultured mouse cortical neurons; assay: Fura-2 calcium imaging in cultured cortical neurons; assay type: cell-based; conditions: NM 50 μM; without NM 1.17 ± 0.03
Method: as §1
Fura-2 fluorescent Ca^2+ imaging was performed as described previously. Cortical or hippocampal neurons grown on 25 mm round glass coverslips were washed three times with ECF and incubated with 5 μM Fura-2-AM for ~ 40 min at room temperature. […] Digitized images were acquired, stored, and analyzed in a PC controlled by Axon Imaging Workbench software (AIW2.1, Molecular Devices, Sunnyvale, CA). […] Fura-2 fluorescence was detected at an emission wavelength of 510 nm. Ratio images of 340/380 nm were analyzed by averaging pixel ratio values in circumscribed regions of cells in the field of view. […]

[7] = biological target: T3, wild-type (WT) human TRPM7 (Homo sapiens, UniProt Q96QT4); assay: Whole-cell recording of recombinant TRPM7 currents in transfected HEK293T cells (voltage ramps); assay type: cell-based
T3 construct: expressed in transfected cells; host or cells: HEK293T
Method: Electrophysiological recordings were made from HEK293T cells transfected wild-type (WT) human TRPM7 or the E1052A, and the D1054A mutant channels, as previously described.
Whole-cell and patch recordings were performed on HEK293T cells at room temperature (22-25°C) with Axopatch 200B (Molecular Devices, Sunnyvale, CA) amplifier. For whole-cell recordings, the Cs^+-based bath solution contained (in mM) 100 Cs-aspartate, 1 EGTA, 10 N-2-Hydroxyethylpiperazine-N'-thanesulfonic acid (HEPES) and 120 mannitol (pH adjusted to 7.4 with CsOH). When required, 1 mM ethyleneglycol-bis-(α-amino-ethyl ether) N,N'-tetra-acetic acid (EGTA) was replaced with added CaCl2 and MgCl2 as indictated in results section. The pipette solution contained 100 Cs-aspartate, 1 EGTA, 10 HEPES, 0.5 CsCl, and 100 mannitol (pH 7.4). The inhibition ratio (%) was calculated according to the following equation: inhibition ratio (%) = 100 × [1 - (INM)/(ICtl)], where ICtl is whole-cell current observed before application of NM at +100 and -100 mV. INM represents the current observed during application of NM.
Data were analyzed with Clampfit 9.2. (Molecular Devices, Sunnyvale, CA), Excel 2002 (Microsoft Corporation, Redmond, WA), Origin 5.0 (OriginLab Corp., Northhampton, MA) and finalized illustrated using CorelDraw X3 (Corel Corporation; Ontario, Canada). Currents were normalized to the amplitude of control responses. NM or DAPI inhibitory concentration-response plots were fitted to the logistic equation: I = (Amax-A0)/[1+(X/IC50)^n]+A0, where I is the normalized current amplitude, X is the antagonist concentration; n is Hill coefficient; IC50 is the concentration of antagonist that generate 50% of maximal inhibition. Results are reported for the text, the figures and amplitude histograms, as mean ± S.E.M. They represent the mean of n individual measurements on different cells. Statistical analysis was done with the unpaired or paired t-test, when appropriate. Chemicals are re-drawn based on the structures downloaded from Pubchem. NM was purchased from BioMol (Plymouth Meeting, PA) and its metabolites p-GBA and AN were from TCI and gabexate, DAPI, HSB from Sigma (St. Louis, MO).

[8] = 200 μM, current evoked by 0.1 mM Ca2+ and 0.1 mM Mg2+
[9] = 200 μM, 0.1 mM Ca2+ and 0.1 mM Mg2+

T3 sequence (Q96QT4 whole entry): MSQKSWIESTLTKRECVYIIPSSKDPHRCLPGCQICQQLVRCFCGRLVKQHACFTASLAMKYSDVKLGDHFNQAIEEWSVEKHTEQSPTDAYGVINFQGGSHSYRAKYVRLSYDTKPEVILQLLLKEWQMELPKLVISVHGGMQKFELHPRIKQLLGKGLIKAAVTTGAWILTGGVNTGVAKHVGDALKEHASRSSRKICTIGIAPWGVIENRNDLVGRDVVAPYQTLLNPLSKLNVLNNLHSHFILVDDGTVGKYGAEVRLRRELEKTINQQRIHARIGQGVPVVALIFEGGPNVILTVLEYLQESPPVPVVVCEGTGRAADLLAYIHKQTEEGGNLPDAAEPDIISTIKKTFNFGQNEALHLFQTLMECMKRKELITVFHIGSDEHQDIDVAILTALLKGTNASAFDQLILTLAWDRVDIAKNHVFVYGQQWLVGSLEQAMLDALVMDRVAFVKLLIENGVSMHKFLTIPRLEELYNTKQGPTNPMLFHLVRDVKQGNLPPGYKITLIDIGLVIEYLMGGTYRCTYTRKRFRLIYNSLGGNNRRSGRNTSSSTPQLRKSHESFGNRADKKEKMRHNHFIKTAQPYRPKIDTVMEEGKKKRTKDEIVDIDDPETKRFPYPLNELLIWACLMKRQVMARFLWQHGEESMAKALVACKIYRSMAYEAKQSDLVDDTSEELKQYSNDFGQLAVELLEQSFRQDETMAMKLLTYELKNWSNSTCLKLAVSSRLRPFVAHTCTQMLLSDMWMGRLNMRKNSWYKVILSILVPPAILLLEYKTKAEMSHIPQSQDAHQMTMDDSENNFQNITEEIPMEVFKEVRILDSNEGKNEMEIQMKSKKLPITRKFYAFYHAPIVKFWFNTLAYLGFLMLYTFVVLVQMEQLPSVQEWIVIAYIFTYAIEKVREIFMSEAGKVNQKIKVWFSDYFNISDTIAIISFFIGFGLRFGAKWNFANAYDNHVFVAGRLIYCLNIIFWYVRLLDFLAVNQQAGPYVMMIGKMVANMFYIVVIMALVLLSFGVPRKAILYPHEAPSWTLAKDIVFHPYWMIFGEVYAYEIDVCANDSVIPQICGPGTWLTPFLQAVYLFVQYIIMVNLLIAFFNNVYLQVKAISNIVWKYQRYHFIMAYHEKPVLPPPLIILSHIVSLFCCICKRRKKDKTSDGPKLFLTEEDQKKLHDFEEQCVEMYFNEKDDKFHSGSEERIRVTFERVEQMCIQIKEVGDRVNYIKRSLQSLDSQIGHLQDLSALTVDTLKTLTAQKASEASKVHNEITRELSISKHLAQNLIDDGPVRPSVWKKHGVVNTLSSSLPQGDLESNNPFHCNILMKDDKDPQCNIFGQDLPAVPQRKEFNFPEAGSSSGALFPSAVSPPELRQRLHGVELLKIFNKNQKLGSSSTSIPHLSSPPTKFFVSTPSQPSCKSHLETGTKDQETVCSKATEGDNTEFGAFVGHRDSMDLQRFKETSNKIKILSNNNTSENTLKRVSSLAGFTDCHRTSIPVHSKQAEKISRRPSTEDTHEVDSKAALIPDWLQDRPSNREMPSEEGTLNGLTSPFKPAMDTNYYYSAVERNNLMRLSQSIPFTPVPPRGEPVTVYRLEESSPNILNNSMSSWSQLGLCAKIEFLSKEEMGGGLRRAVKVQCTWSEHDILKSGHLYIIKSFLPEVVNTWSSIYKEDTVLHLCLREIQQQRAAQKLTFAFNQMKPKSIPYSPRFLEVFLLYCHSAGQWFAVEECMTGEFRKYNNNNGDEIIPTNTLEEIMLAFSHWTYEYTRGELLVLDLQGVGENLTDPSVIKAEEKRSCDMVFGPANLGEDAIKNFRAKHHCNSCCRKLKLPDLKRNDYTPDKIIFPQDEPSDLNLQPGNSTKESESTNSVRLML
T1 sequence (Q923J1 whole entry): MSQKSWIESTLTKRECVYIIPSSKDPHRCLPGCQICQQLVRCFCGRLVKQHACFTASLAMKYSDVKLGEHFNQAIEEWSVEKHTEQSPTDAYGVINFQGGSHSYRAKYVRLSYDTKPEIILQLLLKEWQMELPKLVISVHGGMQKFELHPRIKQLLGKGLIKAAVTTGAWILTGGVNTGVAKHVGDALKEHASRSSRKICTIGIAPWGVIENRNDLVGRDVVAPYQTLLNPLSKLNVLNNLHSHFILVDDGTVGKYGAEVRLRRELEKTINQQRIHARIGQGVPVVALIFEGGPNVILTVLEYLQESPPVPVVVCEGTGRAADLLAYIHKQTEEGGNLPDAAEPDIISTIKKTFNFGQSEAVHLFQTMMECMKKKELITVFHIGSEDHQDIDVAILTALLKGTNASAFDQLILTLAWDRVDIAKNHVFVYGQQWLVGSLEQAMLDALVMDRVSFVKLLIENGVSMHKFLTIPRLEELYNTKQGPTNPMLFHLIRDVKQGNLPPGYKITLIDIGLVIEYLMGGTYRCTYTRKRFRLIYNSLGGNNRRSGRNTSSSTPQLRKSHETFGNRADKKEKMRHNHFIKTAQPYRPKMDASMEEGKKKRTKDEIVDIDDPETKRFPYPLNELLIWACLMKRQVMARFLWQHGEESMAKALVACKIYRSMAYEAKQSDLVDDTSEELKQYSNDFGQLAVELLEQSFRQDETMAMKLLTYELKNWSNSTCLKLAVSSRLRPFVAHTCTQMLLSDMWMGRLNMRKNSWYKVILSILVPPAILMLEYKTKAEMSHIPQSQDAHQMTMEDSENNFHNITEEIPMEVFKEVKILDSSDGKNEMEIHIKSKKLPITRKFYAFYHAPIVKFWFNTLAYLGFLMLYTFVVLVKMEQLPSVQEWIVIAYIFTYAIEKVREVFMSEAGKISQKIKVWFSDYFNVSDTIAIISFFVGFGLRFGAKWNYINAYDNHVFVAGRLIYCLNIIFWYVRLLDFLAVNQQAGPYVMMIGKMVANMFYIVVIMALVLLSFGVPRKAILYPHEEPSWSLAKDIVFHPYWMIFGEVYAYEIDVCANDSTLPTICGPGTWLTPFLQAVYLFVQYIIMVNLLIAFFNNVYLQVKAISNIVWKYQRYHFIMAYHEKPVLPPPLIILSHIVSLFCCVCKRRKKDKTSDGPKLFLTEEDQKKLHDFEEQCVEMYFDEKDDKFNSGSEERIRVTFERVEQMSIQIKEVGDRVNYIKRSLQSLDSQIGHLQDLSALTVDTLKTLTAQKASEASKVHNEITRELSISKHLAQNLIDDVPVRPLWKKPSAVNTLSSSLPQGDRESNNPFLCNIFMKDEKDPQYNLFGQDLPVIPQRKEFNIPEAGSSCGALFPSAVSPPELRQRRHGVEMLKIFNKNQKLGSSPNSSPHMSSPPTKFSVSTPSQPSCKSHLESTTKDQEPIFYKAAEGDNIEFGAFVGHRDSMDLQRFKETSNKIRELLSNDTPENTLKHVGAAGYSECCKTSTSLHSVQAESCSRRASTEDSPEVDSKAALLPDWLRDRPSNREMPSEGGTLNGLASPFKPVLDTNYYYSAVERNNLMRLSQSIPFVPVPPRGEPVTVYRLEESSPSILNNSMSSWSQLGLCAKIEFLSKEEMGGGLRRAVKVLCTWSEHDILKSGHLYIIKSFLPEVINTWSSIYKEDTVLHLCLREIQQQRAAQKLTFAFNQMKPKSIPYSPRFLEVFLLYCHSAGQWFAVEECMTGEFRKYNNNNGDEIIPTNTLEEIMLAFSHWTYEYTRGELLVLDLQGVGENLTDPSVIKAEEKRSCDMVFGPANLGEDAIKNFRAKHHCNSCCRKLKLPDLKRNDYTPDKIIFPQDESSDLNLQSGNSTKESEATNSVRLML

SMILES: CC(=O)N[C@@H](CC(C)C)C(=O)N[C@@H](CC(C)C)C(=O)N[C@H](C=O)CCCNC(=N)N [Leupeptin, leupeptin]
potentiation of TRPM7 current, pre-exposed ([1]; 200 μM): no inhibitory or potentiating effects
block of TRPM7 current, co-applied [1, 8]: no inhibitory or potentiating effects

SMILES: [Mg+2] [Mg^2+]
reduction of IC50 for monovalent cation block on decreasing pH from 7.4 to 4.0 (human TRPM7 channels): 510 fold

direct activation of TRPM7 current at physiological divalent cations ([1]; 25 μM, 2 mM Ca2+ and 1 mM Mg2+): little effects
amplitude of NM-induced current ([1]; 0.1 mM Ca2+ (with 0.1 Mg2+)): 1018 ± 120 pA
potentiation of evoked TRPM7 current, pre-exposed ([1]; 200 μM applied before lowering divalent cations, current evoked by 0.1 mM Ca2+ and 0.1 mM Mg2+): about 3.6 ± 0.4 fold
offset time constant of inhibition [1, 9]: 1.07 ± 0.20 s
onset time constant of inhibition [1, 9]: 0.29 ± 0.04 s
direct activation of TRPM7 current at physiological divalent cations ([1]; 200 μM, 2 mM Ca2+ and 1 mM Mg2+): induced small inward currents
current amplitude upon NM washout ([1]; 200 μM, 2 mM Ca2+ and 1 mM Mg2+, brief washout): 379 ± 86 pA
amplitude of NM-induced current ([1]; 200 μM, 2 mM Ca2+ and 1 mM Mg2+, during application): 243 ± 66 pA
reversal potential of NM-induced current ([1]; 200 μM, 2 mM Ca2+ and 1 mM Mg2+, voltage ramps): 0 mV
block of TRPM7 current, co-applied [1, 8]: completely blocks
block of TRPM7 current, co-applied ([1]; 200 μM, current evoked by zero divalent cations): reversibly blocked
amplitude of NM-induced current ([1]; 2 mM Ca2+ (with 1 mM Mg2+)): 291 ± 52 pA
amplitude of NM-induced current ([1]; 10 mM Ca2+ (with 1 mM Mg2+)): 147 ± 20 pA
Hill coefficient ([1]; current evoked by 0.1 mM Ca2+ and 0.1 mM Mg2+): 1.4
IC50 ([1]; current evoked by 0.1 mM Ca2+ and 0.1 mM Mg2+, -60 mV, acutely applied, read-out: IC50, block of TRPM7 current): 27 µM
increase of inhibitory potency in divalent-free solution versus 0.1 mM divalents ([7]; +100 mV): about 5 fold
Hill coefficient ([7]; +100 mV, 0.1 mM Ca2+ and 0.1 mM Mg2+): 1.4
IC50 ([7]; +100 mV, 0.1 mM Ca2+ and 0.1 mM Mg2+, read-out: IC50, inhibition of outward TRPM7 current): 617 µM
Hill coefficient ([7]; +100 mV, divalent free solution): 1.2
IC50 ([7]; +100 mV, divalent free solution, read-out: IC50, inhibition of TRPM7 current): 121 µM
increase of inhibitory potency in divalent-free solution versus 0.1 mM divalents ([7]; -100 mV): 30 fold
Hill coefficient ([7]; -100 mV, 0.1 mM Ca2+ and 0.1 mM Mg2+): 1.3
IC50 ([7]; -100 mV, 0.1 mM Ca2+ and 0.1 mM Mg2+, read-out: IC50, inhibition of inward TRPM7 current): 514 µM
Hill coefficient ([7]; -100 mV, divalent free solution): 1.3
IC50 ([7]; -100 mV, divalent free solution, read-out: IC50, inhibition of TRPM7 current): 15 µM
potentiation of TRPM7 currents ([7]; TRPM7-transfected HEK293T cells, ramp-clamp, inward currents at -100 mV): potentiates
inhibition of TRPM7 currents ([7]; in the presence of 1 mM Ca2+ and Mg2+): failed to inhibit
SMILES: N=C(N)c1ccc2cc(OC(=O)c3ccc(N=C(N)N)cc3)ccc2c1 [NM, 6-amidino-2-naphthyl-4-guanidinobenzobate dimethanesulfonate]
effect on slowly activating inward current induced by lowering divalent cations [2]: attenuated
firing frequency of action potentials [3]: 6.8 ± 2.9 Hz
NM-induced change of intracellular concentration of Ca2+ ([4]; 200 μM, 2 mM Ca2+, no Mg2+, MK801, CNQX, nimodipine present): induced an increase
net increase of 340/380 ratio on lowering extracellular Ca2+ ([4]; NM 50 μM, Ca2+ from 2.0 mM to 0.5 mM, no added Mg2+, without NM 2.64 ± 0.48): 0.61 ± 0.32
net increase of 340/380 ratio induced by KCl ([4]; NM 50 μM, KCl 50 mM, 1.67 in the absence of NM): 1.84
inhibition by NM of currents, relative to WT [5]: strongly depressed
net increase of 340/380 ratio on lowering extracellular Ca2+ [6]: 0.20 ± 0.08
effect on blocking potency of extracellular divalent cations ([7]; 500 μM NM): substantially reduced the blocking potency

SMILES: Cn1cc(NC(=O)c2cc(NC(=O)CN=C(N)N)cn2C)cc1C(=O)NCCC(=N)N [netropsin]
potentiation of TRPM7 current, pre-exposed ([1]; 200 μM): nor potentiated
block of TRPM7 current, co-applied [1, 8]: neither blocked

block of TRPM7 current, co-applied ([1]; 1 mM (p-GBA up to 1 mM), low divalent-evoked current): neither inhibited
I compound / I control, co-applied ([1]; 1 mM, normalized current): 94 ± 3%
I compound / I control, pre-exposed ([1]; 1 mM, normalized current): 96 ± 1%
potentiation of TRPM7 current, pre-exposed ([1]; up to 1 mM): nor potentiated
SMILES: N=C(N)Nc1ccc(C(=O)O)cc1 [p-GBA, p-guanidinobenzoic acid]

SMILES: N=C(N)NCCCCCCCCCCNC(=N)N [synthalin]
potentiation of TRPM7 current, pre-exposed ([1]; 200 μM): did not block or potentiate
block of TRPM7 current, co-applied [1, 8]: did not block or potentiate
